From patent US10975083B2, “Blood-brain barrier-penetrant dopamine-β-hydroxylase inhibitors” (BIAL—PORTELA & Cᵃ, S.A., priority 2016, dated 2021)
Where two headings read alike, the source gives them in different places.

Molecular target: T1, DβH (Homo sapiens, UniProt P09172)
T1 construct: reaction mixture (total volume 500 μl) contained: cellular homogenate (75 μg total protein); host or cells: SK-N-SH cell homogenate
T1 sequence (P09172 1-617): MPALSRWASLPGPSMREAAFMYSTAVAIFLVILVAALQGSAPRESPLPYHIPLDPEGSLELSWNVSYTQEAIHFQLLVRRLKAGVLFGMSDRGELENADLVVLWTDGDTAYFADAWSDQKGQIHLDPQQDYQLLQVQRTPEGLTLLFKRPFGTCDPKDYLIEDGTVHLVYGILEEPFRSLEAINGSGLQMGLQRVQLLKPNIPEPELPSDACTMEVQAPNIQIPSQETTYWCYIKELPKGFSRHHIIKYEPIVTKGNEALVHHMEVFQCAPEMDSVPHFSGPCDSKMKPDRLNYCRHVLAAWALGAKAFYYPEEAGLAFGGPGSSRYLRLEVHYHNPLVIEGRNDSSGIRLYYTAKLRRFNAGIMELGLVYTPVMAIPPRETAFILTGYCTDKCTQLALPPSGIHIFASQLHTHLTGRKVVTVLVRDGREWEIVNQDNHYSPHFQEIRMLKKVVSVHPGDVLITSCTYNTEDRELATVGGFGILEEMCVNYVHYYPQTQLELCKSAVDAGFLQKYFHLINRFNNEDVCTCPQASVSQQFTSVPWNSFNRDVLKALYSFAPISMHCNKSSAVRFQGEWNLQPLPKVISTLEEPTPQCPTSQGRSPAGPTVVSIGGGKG
Experiment: DβH inhibition cell assay (SK-N-SH cellular homogenates, tyramine to octopamine)
Format: biochemical
Settings: for remaining activity at 0.1 µM: inhibitor 0.1 μM, read-out: DβH activity in % of Ctrl (0.1 μM); for remaining activity at 1 µM: read-out: DβH activity in % of Ctrl (1 μM); for remaining activity at 10 µM: inhibitor 10 μM, read-out: DβH activity in % of Ctrl (10 μM)
Experimental: The ability of a compound to inhibit DβH activity may be assessed using the following cell assay. […] . […] Fetal bovine serum was removed from cells for 4 h prior to collection.
For the preparation of cellular homogenates, media was removed and cell monolayers were washed with 50 mM Tris-HCl pH 7.4. Cells were subsequently scrapped off the flasks and were resuspended in 50 mM Tris pH 7.4. Cell suspensions were homogenized with SilentCrusher M (Heidolph) for a short stroke and resultant homogenates were aliquoted and stored frozen at −80° C.
Total protein was quantified in cellular homogenates with BioRad Protein Assay (BioRad) using a standard curve of BSA (50-250 μg/mL).
DβH activity was measured by a modification of the method of Nagatsu and Udenfriend (Nagatsu, T. and S. Udenfriend: “Photometric assay of dopamine-hydroxylase activity in human blood.” Clin. Chem. 18(9): 980-3, 1972) which is based on the enzymatic hydroxylation of tyramine into octopamine. The octopamine formed is subsequently oxidized to p-hydroxybenzaldehyde and measured by spectrophotometry. In brief, reaction mixture (total volume 500 μl) contained: cellular homogenate (75 μg total protein) sodium acetate pH 5.0 (200 mM), NEM (30 mM), CuSO4 (5 μM), catalase aqueous solution (0.5 mg/mL), pargyline-HCl (1 mM), sodium fumarate (10 mM), ascorbic acid (10 mM), inhibitor or vehicle and tyramine (25 mM). After a 10 min pre-incubation period at 37° C., the reaction was initiated by the addition of tyramine. Reaction was carried out for 45 min at 37° C. before termination with 50 μl PCA (2 M).
Samples were centrifuged for 3 min at 16100 g and supernatants were subjected to solid phase extraction. Solid phase extraction was performed using either SPE cartridges ISOLUTE SCX-3 (100 mg, 1 mL) or SPE 2 mL fixed 96 well plates ISOLUTE SCX-3 (100 mg) previously equilibrated with MilliQ water. Columns/plates were centrifuged at 150 g for 2 min. Eluate was discarded and matrix was washed with 1 mL of MilliQ water after which octopamine was eluted with 2×0.25 mL ammonium hydroxide (4 M). The oxidation of octopamine to p-hydroxybenzaldehyde was carried out for 6 min with 100 μl sodium periodate (2%) and was stopped with 100 μl sodium metabisulfite (10%). Absorbance was measured at 330 nm on a Spectramax microplate reader (Molecular Devices, Sunnyvale, Calif.). All enzymatic reactions were performed in duplicate. Results are reported in the table below as activity in % of control at the inhibitor concentration tested.

[1] = inhibitor 1 μM, SK-N-SH cell homogenate

SMILES	remaining activity at 0.1 µM (SK-N-SH cell homogenate)	remaining activity at 1 µM [1]	remaining activity at 10 µM (SK-N-SH cell homogenate)	remaining activity at 1 µM
NC(=S)N1C[C@H]2C[C@@]2(c2cc(F)cc(F)c2)C1 [Example 35, (1R,5S)-1-(3,5-difluorophenyl)-3-azabicyclo[3.1.0]hexane-3-carbothioamide]	95%	34.3%	0%	
Cc1[nH]c(=S)n2c1C[C@@H](c1c(F)ccc(Cl)c1F)C2 [Example 105, (S)-6-(3-chloro-2,6-difluorophenyl)-1-methyl-2,5,6,7-tetrahydro-3H-pyrrolo[1,2-c]imidazole-3-thione]	17.4%	0%		
NC(=S)N1CCC(c2ccc(F)cc2)C1 (stereo not drawn) [Example 3, 3-(4-Fluorophenyl)pyrrolidine-1-carbothioamide]	89%	53.8%	3.9%	
NC(=S)N1CCC(c2cc(F)ccc2F)C1 (stereo not drawn) [Example 18, 3-(2,5-difluorophenyl)pyrrolidine-1-carbothioamide]	57%	6.4%		
Cc1cccc(C2CCN(C(N)=S)C2)c1 (stereo not drawn) [Example 14, 3-m-tolylpyrrolidine-1-carbothioamide]			13.1%	
Fc1ccc(F)c(C23CC2CN(C(=S)NCCS)C3)c1 (stereo not drawn) [Example 40, 1-(2,5-difluorophenyl)-N-(2-mercaptoethyl)-3-azabicyclo[3.1.0]hexane-3-carbothioamide]	87.9%			
CCCNC(=S)N1C[C@@H]2C[C@]2(c2cc(F)cc(F)c2)C1 [Example 39, (1S,5R)-1-(3,5-Difluorophenyl)-N-propyl-3-azabicyclo[3.1.0]hexane-3-carbothioamide]	40.4%	0.3%		
Fc1cccc(F)c1[C@@H]1Cc2c[nH]c(=S)n2C1 [Example 84, (S)-6-(2,6-difluorophenyl)-2,5,6,7-tetrahydro-3H-pyrrolo[1,2-c]imidazole-3-thione]	96.9%	41.9%		
Cc1ccccc1C1CCN(C(N)=S)C1 (stereo not drawn) [Example 13, 3-o-tolylpyrrolidine-1-carbothioamide]			7.2%	
Fc1cc(F)cc([C@]23C[C@H]2Cc2c[nH]c(=S)n2C3)c1 [Example 106, (5aS,6aS)-5a-(3,5-difluorophenyl)-2,5,5a,6,6a,7-hexahydro-3H-cyclopropa[d]imidazo[1,5-a]pyridine-3-thione]				16.3%
Cn1cc2n(c1=S)C[C@@H](c1c(F)c(F)cc(F)c1F)C2 [Example 114, (R)-2-methyl-6-(2,3,5,6-tetrafluorophenyl)-2,5,6,7-tetrahydro-3H-pyrrolo[1,2-c]imidazole-3-thione]	70.8%	15.2%		
Cc1[nH]c(=S)n2c1C[C@@H](c1c(F)c(F)cc(F)c1F)C2 [Example 97, (S)-1-methyl-6-(2,3,5,6-tetrafluorophenyl)-2,5,6,7-tetrahydro-3H-pyrrolo[1,2-c]imidazole-3-thione]	41.9%	7.9%		
CN(C)C(=S)N1CC2CC2(c2cc(F)cc(F)c2)C1 (stereo not drawn) [Example 46, 1-(3,5-Difluorophenyl)-N,N-dimethyl-3-azabicyclo[3.1.0]hexane-3-carbothioamide]		31.6%		
Cn1cc2n(c1=S)C[C@@]1(c3cc(F)cc(F)c3)C[C@@H]21 [Example 76, (5aS,6aR)-5a-(3,5-difluorophenyl)-2-methyl-5,5a,6,6a-tetrahydrocyclopropa[3,4]pyrrolo[1,2-c]imidazole-3 (2H)-thione]		17.4%		

Second part, led by results:

remaining activity at 0.1 µM (SK-N-SH cell homogenate)	remaining activity at 1 µM [1]	remaining activity at 10 µM (SK-N-SH cell homogenate)	SMILES	remaining activity at 1 µM
1.8%	1%		Fc1ccc(Cl)c(F)c1[C@]12C[C@H]1c1c[nH]c(=S)n1C2 [Example 90, (5aS,6aR)-5a-(3-chloro-2,6-difluorophenyl)-5,5a,6,6a-tetrahydrocyclopropa[3,4]pyrrolo[1,2-c]imidazole-3 (2H)-thione]	
39.6%	0%		Fc1ccc(F)c([C@H]2Cc3c[nH]c(=S)n3C2)c1F [Example 113, (R)-6-(2,3,6-trifluorophenyl)-2,5,6,7-tetrahydro-3H-pyrrolo[1,2-c]imidazole-3-thione]	
70%	10.1%		Fc1ccc(F)c([C@@H]2Cc3c[nH]c(=S)n3C2)c1F [Example 112, (S)-6-(2,3,6-trifluorophenyl)-2,5,6,7-tetrahydro-3H-pyrrolo[1,2-c]imidazole-3-thione]	
31.6%	1%		Cc1[nH]c(=S)n2c1[C@@H]1C[C@]1(c1cc(Cl)ccc1F)C2 [Example 99, (5aS,6aR)-5a-(5-chloro-2-fluorophenyl)-1-methyl-5,5a,6,6a-tetrahydrocyclopropa[3,4]pyrrolo[1,2-c]imidazole-3 (2H)-thione]	
63.4%	10.3%		Fc1ccc(Cl)c(F)c1[C@@]12C[C@@H]1c1c[nH]c(=S)n1C2 [Example 103, (5aR,6aS)-5a-(3-chloro-2,6-difluorophenyl)-5,5a,6,6a-tetrahydrocyclopropa[3,4]pyrrolo[1,2-c]imidazole-3 (2H)-thione]	
90%	20%		Fc1cc(F)c(F)c([C@@H]2Cc3c[nH]c(=S)n3C2)c1 [Example 82, (S)-6-(2,3,5-trifluorophenyl)-2,5,6,7-tetrahydro-3H-pyrrolo[1,2-c]imidazole-3-thione]	
	35%		Fc1cc(F)c([C@]23C[C@H]2c2c[nH]c(=S)n2C3)cc1F [Example 72, (5aS,6aR)-5a-(2,4,5-trifluorophenyl)-5,5a,6,6a-tetrahydrocyclopropa[3,4]pyrrolo[1,2-c]imidazole-3 (2H)-thione]	
0%	0%		Fc1ccc(Br)cc1[C@]12C[C@H]1c1c[nH]c(=S)n1C2 [Example 93, (5aS,6aR)-5a-(5-bromo-2-fluorophenyl)-5,5a,6,6a-tetrahydrocyclopropa[3,4]pyrrolo[1,2-c]imidazole-3 (2H)-thione]	
	29.8%		Fc1cccc(Cl)c1[C@]12C[C@H]1c1c[nH]c(=S)n1C2 [Example 89, (5aS,6aR)-5a-(2-chloro-6-fluorophenyl)-5,5a,6,6a-tetrahydrocyclopropa[3,4]pyrrolo[1,2-c]imidazole-3 (2H)-thione]	
14.5%	0%		[2H]C([2H])([2H])n1cc2n(c1=S)C[C@@]1(c3cc(Cl)ccc3F)C[C@@H]21 [Example 101, (5aS,6aR)-5a-(5-chloro-2-fluorophenyl)-2-(methyl-d3)-5,5a,6,6a-tetrahydrocyclopropa[3,4]pyrrolo[1,2-c]imidazole-3 (2H)-thione]	
	38.8%		C[C@H]1c2c[nH]c(=S)n2C[C@H]1c1c(F)c(F)cc(F)c1F [Example 108, (6R,7R)-7-methyl-6-(2,3,5,6-tetrafluorophenyl)-2,5,6,7-tetrahydro-3H-pyrrolo[1,2-c]imidazole-3-thione]	
18.1%	0%		Fc1cc(Br)cc([C@]23C[C@H]2c2c[nH]c(=S)n2C3)c1 [Example 94, (5aS,6aR)-5a-(3-bromo-5-fluorophenyl)-5,5a,6,6a-tetrahydrocyclopropa[3,4]pyrrolo[1,2-c]imidazole-3 (2H)-thione]	
